Here are results for two molecules from patent US11359180B2, “Method for producing myocardial cells using synthetic peptide” (Toagosei Co., Ltd., priority 2015, dated 2022).

For experiment [1], the system named is iPS cells of human origin (clone 201B7). As to the kind of experiment: Expression of myocardial cell marker genes by fluorescent cytoimmunostaining. It is filed as cell-based. Conditions: sample 1 addition section, 16th day after start of main culture. The procedure: To check the state of expression of myocardial cell marker genes, cytoimmunostaining (fluorescent immunostaining) of proteins that are the gene products of myocardial marker genes was carried out on the cells in each of the test sections at the 16th day after the start of main culture. The expression of the following as myocardial marker genes was checked: myosin heavy chain (MHC), cardiac Troponin T (cTnT), tropomyosin (TM), and connexin 43 (Cx43).
First, the cells in each test section were subjected to a fixing treatment, a permeabilization treatment, and a blocking treatment. This fixing treatment, permeabilization treatment, and blocking treatment were carried out using a commercial kit (Image-iT Fixation/Permeabilization Kit, Life Technologies Corporation) in accordance with the manual provided with the kit.
Specifically, the culture medium was first removed from the culture vessel (12-well plate) for the cells in each test section on the 16th day after the start of the main culture (16th day after the addition of the myocardial cell differentiation-inducing synthetic peptide). The fixing treatment was performed by adding the fixative solution (Fixative Solution, contained 4 volume % formaldehyde in PBS (pH=7.3)) from the kit at 0.4 mL/well and holding at quiescence for 15 minutes at room temperature. This was followed by washing 3 times using the wash buffer (Wash Buffer, PBS, pH=7.4) from the kit at 0.5 mL/well.
A permeabilization treatment was then performed by adding the permeabilization solution (Permeabilization solution, contained 0.5 volume % Triton (registered trademark) X-100) from the kit at 0.5 mL/well and holding at quiescence for 15 minutes at room temperature. This was followed by washing three times with the wash buffer ([…]) from the kit.
After the cells in each well had been washed with PBS-T (PBS containing 0.25 volume % Triton (registered trademark) X-100), a blocking treatment was performed by adding the blocking solution (Blocking Solution, contained 3 weight/volume % (w/v %) BSA fraction V in DPBS (Dulbecco's PBS) (pH=7.4)) from the kit to each well and standing at quiescence overnight (about 18 hours) at 4° C.
After this blocking treatment, the primary antibody dilutions were added to each well followed by holding at quiescence for 2 hours at room temperature; the primary antibody dilutions were prepared by the dilution of the specified primary antibodies to a suitable antibody concentration using the blocking solution used in the blocking treatment.
The following primary antibodies were used as these primary antibodies: anti-myosin heavy chain antibody, anti-cardiac Troponin T antibody, anti-tropomyosin antibody, and anti-connexin 43 antibody. […]

The test system is the same in experiment [2]. Briefly: Induction of myocardial cell differentiation: microscopic observation of beating cells. It is filed as cell-based. From the text:
Pluripotent stem cells were induced to myocardial cells (production of myocardial cells) using the myocardial cell differentiation-inducing synthetic peptide obtained in Example 1 (sample 1). Specifically, pluripotent stem cells were induced to myocardial cells (production of myocardial cells) by using the myocardial cell differentiation-inducing synthetic peptide obtained in Example 1 (sample 1) in place of activin A in the method for inducing the differentiation of pluripotent stem cells into hepatocytes. The method described in Non Patent Literature 3 was adopted for the method for inducing the differentiation of pluripotent stem cells into hepatocytes. iPS cells of human origin (clone designation: 201B7, source: Takahashi K et al., Cell, 131, 861-872 (2007)) were used for the test cells. These iPS cells were supplied by the Center for iPS Cell Research and Application of Kyoto University.
The iPS cells, which were the test cells, were seeded to 12-well plates coated with an extracellular matrix (Geltrex (registered trademark) in the present case). Using mTeSR1 (STEMCELL Technologies Inc.) for the culture medium, they were cultured (precultured) in a CO2 incubator under conditions of 37° C. and 5% CO2 until an appropriate cell density (here, a confluence of about at least 60% and not more than 70%) had been reached. Medium exchange was performed each day during this preculture.
The sample 1 obtained in Example 1 was then added to the culture medium and cultivation was carried out (main culture). Thus, the pluripotent stem cells were induced to myocardial cells (production of myocardial cells) by using the myocardial cell differentiation-inducing synthetic peptide obtained in Example 1 (sample 1) in place of the activin A in the method for inducing the differentiation of pluripotent stem cells into hepatocytes that is given in Non Patent Literature 3. The following were set up in the present example: a test section (referred to below as the activin A addition section) that used the same method as the method given in Non Patent Literature 3 for inducing the differentiation of pluripotent stem cells to hepatocytes using activin A; a test section (referred to below as the sample 1 addition section) that used the myocardial cell differentiation-inducing synthetic peptide of sample 1 in place of the activin A in the activin A addition section; and a control section to which neither the activin A nor the myocardial cell differentiation-inducing synthetic peptide was added. The specifics are given below. The culture conditions in this main culture are given schematically in FIG. 1.
First, the culture medium was exchanged to base medium 1 in the activin A addition section, the sample 1 addition section, and the control section. In the activin A addition section, activin A (R&D Systems, Inc., Cat. No. 338-AC-D50) was added to the culture vessel (i.e., to the base medium 1) in a quantity that provided an activin A concentration in the culture medium of 100 ng/mL. […]
After this cultivation for 2 days (i.e., the 2nd day after the start of the main culture), the culture medium was exchanged to base medium 2 in the activin A addition section, the sample 1 addition section, and the control section. In the activin A addition section, activin A was added to the culture vessel (i.e., to the base medium 2) in a quantity that provided an activin A concentration in the culture medium of 100 ng/mL. […]

On to LLLLLLVGLTAPAGKKRTLRKNDRKKR [sample 1], for which, in experiment [1] (FIG. 2), the “expression of cardiac Troponin T in comparison to control section” value is “substantially increased” and the “expression of myosin heavy chain in comparison to control section” value is recorded as “substantially increased”. In experiment [1] (FIG. 3), the “expression of connexin 43 in comparison to control section” value is given as “substantially increased” and the “expression of tropomyosin in comparison to control section” value is “substantially increased”. Moreover, the “number of beating cells present (abundance ratio) compared to 9th day” value in experiment [2] (sample 1 addition section, 8 μM, 10th day after start of main culture) was “had increased”. Moreover, the “number of beating cells” value in experiment [2] (sample 1 addition section, 8 μM, 17th day after start of main culture, 12-well plate) is reported as “approximately 38 beating cells/well”. Besides, the “number of beating cells (abundance ratio), average” value in experiment [2] (sample 1 addition section, repeated tests, 17th day after start of main culture) is “about 40 per 1 well of the 12-well plate”. Moreover, the “probability that at least 1 beating cell was present per 1 well” value in experiment [2] (sample 1 addition section, tests independently repeated a plurality of times, 12-well plate) was “at least 95%”.

B1: activin A: peptide having approximately 140 amino acid residues (R&D Systems, Cat. No. 338-AC-D50), used in the hepatocyte differentiation-inducing method (protein, UniProt P08476 311-426, looked up)
Inhibin beta A chain: GLECDGKVNICCKKQFFVSFKDIGWNDWIIAPSGYHANYCEGECPSHIAGTSGSSLSFHSTVINHYRMRGHSPFANLKSCCVPTKLRPMSMLYYDDGQNIIKKDIQNMIVEECGCS
modifications: Inhibin beta A chain
notes: peptide having approximately 140 amino acid residues (R&D Systems, Cat. No. 338-AC-D50), used in the hepatocyte differentiation-inducing method
Consider B1, for which the “presence of beating cells” value in experiment [2] (activin A addition section, 100 ng/mL, daily observation during main culture) is on record as “could not be confirmed”.
